Common to all, as to format: biochemical
One assay deals with T1, PI3Kδ (Homo sapiens, UniProt O00329).
T1 construct: made in house
Nature of the assay: TR-FRET enzymatic activity assay, PI3Kδ. Conditions: Table 2a; same assay. For orientation: TR-FRET usually uses a lanthanide donor and a delayed reading to cut background.

The next assay concerns the target T2, PI3Kγ (Homo sapiens, UniProt P48736).
T2 construct: made in house
As to the kind of experiment: TR-FRET enzymatic activity assay, PI3Kγ. Conditions: Table 2a; same assay; read-out: PI3Kγ IC50. In outline: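 Enzymatic activity against the PI3K isoforms was measured using a time-resolved fluorescence resonance energy transfer (TR-FRET) assay.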

A further assay has as its target T3, PI3Kβ (Homo sapiens, UniProt P42338).
T3 construct: made in house
As to the kind of experiment: TR-FRET enzymatic activity assay, PI3Kβ. The following applies: Table 2a; same assay.

For ten compounds, IC50 results are on record in patent publication US10308639B2, “Phosphatidylinositol 3-kinase inhibitors” (Gilead Sciences, Inc., priority 2014, dated 2019).

T2 sequence (P48736 whole entry): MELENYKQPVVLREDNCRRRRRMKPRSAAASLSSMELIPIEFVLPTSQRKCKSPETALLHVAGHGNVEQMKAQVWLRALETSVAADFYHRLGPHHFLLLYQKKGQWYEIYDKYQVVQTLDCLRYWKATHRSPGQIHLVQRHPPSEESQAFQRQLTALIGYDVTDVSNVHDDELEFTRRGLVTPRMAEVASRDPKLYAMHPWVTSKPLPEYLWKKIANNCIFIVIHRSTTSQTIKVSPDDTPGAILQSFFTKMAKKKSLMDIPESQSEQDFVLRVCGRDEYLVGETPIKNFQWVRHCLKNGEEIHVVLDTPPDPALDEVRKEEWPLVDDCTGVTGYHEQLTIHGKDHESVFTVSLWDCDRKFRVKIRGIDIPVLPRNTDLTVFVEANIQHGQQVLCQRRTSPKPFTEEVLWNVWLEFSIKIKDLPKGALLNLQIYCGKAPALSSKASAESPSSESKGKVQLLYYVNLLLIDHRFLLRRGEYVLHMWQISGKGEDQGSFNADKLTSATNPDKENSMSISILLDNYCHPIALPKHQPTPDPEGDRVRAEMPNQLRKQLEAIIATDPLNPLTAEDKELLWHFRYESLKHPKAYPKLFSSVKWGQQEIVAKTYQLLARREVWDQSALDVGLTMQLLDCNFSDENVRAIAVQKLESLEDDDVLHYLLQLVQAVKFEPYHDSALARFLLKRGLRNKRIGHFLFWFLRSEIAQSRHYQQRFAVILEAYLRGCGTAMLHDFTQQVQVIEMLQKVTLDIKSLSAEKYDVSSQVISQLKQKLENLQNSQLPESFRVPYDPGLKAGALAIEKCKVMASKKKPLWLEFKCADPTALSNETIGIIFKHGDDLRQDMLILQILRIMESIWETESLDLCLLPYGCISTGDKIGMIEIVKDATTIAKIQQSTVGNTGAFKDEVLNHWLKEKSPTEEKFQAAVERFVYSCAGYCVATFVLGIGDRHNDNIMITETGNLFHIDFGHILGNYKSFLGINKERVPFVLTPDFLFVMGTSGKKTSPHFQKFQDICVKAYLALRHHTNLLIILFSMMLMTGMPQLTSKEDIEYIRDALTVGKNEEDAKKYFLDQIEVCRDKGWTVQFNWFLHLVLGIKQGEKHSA
T1 sequence (O00329 whole entry): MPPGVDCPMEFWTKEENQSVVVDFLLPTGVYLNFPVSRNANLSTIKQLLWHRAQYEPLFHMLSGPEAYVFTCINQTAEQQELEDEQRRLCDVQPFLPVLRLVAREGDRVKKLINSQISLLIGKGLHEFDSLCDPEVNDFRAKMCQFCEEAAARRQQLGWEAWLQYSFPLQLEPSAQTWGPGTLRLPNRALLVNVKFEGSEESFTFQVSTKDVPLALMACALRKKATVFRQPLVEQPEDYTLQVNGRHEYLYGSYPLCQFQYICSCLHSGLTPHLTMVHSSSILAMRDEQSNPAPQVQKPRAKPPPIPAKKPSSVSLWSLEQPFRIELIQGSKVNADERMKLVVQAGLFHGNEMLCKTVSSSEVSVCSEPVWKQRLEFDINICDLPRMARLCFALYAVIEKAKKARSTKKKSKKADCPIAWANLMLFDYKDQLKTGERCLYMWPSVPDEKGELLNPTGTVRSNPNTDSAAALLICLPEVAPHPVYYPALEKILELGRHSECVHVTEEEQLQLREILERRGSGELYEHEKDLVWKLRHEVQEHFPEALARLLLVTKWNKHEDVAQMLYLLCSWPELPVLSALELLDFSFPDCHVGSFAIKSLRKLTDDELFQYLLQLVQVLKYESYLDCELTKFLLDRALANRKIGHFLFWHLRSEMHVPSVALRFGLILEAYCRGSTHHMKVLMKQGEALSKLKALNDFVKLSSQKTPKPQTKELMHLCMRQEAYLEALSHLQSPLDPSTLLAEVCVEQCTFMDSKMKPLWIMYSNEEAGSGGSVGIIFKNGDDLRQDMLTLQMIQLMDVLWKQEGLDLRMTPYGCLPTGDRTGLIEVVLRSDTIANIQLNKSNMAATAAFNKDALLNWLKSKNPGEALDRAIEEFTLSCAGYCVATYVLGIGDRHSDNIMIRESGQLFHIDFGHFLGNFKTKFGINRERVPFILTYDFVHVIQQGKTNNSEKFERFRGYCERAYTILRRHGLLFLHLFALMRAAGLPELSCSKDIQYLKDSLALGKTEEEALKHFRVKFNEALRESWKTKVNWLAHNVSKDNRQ
T1 sequence (P27986 whole entry partner): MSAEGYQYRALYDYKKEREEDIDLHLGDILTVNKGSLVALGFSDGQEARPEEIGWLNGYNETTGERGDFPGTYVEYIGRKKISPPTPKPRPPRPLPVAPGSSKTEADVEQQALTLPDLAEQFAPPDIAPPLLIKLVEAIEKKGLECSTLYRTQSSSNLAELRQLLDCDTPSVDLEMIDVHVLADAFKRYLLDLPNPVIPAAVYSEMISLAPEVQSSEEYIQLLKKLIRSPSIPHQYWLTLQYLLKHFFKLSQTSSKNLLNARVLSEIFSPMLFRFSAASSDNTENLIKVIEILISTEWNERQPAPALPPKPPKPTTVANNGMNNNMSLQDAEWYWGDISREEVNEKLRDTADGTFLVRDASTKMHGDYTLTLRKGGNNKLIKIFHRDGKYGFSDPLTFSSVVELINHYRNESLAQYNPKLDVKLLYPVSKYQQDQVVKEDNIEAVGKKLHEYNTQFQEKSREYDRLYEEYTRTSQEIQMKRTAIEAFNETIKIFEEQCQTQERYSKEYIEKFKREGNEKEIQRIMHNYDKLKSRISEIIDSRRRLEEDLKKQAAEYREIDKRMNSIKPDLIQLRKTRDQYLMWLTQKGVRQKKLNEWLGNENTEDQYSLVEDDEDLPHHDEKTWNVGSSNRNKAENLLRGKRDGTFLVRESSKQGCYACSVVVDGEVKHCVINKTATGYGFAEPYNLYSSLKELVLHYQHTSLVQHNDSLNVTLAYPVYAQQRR
T3 sequence (P42338 whole entry): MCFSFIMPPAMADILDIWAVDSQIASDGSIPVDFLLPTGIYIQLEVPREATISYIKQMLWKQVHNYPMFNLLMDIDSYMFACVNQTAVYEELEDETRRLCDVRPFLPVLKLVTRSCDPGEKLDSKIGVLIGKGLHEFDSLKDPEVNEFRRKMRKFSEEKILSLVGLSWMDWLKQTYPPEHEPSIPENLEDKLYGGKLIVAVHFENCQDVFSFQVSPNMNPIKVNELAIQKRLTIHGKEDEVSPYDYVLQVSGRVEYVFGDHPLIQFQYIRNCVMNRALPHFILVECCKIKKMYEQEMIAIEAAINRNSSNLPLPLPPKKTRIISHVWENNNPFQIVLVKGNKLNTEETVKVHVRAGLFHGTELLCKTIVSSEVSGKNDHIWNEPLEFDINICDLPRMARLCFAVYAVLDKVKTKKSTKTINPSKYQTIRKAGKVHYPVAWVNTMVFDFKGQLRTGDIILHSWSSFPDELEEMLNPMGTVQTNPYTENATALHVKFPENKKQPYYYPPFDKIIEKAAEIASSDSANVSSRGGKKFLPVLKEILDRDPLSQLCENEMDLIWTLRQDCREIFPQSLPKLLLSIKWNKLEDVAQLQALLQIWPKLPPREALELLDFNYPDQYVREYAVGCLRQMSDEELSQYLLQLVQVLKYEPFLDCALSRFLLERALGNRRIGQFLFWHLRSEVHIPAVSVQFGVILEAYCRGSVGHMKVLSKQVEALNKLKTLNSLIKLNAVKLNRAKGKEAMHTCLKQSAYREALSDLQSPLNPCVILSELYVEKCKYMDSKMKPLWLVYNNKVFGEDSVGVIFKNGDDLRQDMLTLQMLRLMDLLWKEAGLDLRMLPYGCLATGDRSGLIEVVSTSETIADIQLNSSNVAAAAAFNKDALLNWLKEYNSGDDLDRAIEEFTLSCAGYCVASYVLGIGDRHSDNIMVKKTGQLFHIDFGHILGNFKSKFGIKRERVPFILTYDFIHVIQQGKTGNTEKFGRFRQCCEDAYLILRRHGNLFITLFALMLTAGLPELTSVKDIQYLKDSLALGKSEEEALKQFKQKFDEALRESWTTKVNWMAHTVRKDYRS
T3 sequence (P27986 whole entry partner): as the sequence (P27986 whole entry partner) above

Consider `N#Cc1c(N)nc(N)nc1N[C@H](c1nc2c(C(F)(F)F)cccc2c(=O)n1-c1cc[nH]n1)C1CC1` [Compound 133, (S)-2,4-diamino-6-((cyclopropyl(4-oxo-3-(1H-pyrazol-3-yl)-8-(trifluoromethyl)-3,4-dihydroquinazolin-2-yl)methyl)amino)pyrimidine-5-carbonitrile], for which the IC50 on PI3Kδ came to 3 nM; at PI3Kγ it was 0.474 µM; at PI3Kβ, 2 nM.

Take `Nc1nc(N)c(Cl)c(N[C@H](c2nc3c(C(F)(F)F)cccc3c(=O)n2-c2cc[nH]n2)C2CC2)n1` [Compound 134, (S)-2-(cyclopropyl((2,6-diamino-5-chloropyrimidin-4-yl)amino)methyl)-3-(1H-pyrazol-3-yl)-8-(trifluoromethyl)quinazolin-4(3H)-one]: the results for the concentration for half-maximal inhibition (IC50) against PI3Kδ, on PI3Kγ and at PI3Kβ were 24 nM, 9.3 µM and 37 nM, respectively.

As for `C[C@H](Nc1nc(N)nc(N)c1C#N)c1nc2c(C(F)(F)F)cccc2c(=O)n1-c1cc[nH]n1` [Compound 135, (S)-2,4-diamino-6-((1-(4-oxo-3-(1H-pyrazol-3-yl)-8-(trifluoromethyl)-3,4-dihydroquinazolin-2-yl)ethyl)amino)pyrimidine-5-carbonitrile], the IC50 on PI3Kδ was 1 nM; on PI3Kγ, 0.34 µM; at PI3Kβ, 2 nM.

Turning to `C[C@H](Nc1nc(N)nc(N)c1Cl)c1nc2c(C(F)(F)F)cccc2c(=O)n1-c1cc[nH]n1` [Compound 136, (S)-2-(1-((2,6-diamino-5-chloropyrimidin-4-yl)amino)ethyl)-3-(1H-pyrazol-3-yl)-8-(trifluoromethyl)quinazolin-4(3H)-one], the concentration for half-maximal inhibition (IC50) against PI3Kδ came out at 11 nM; at PI3Kγ, 5.5 µM; at PI3Kβ, 9 nM.

`C[C@H](Nc1nc(N)nc(N)c1C#N)c1nc2cc(Cl)ccc2c(=O)n1-c1cc[nH]n1` [Compound 139]: the figures for the IC50 against PI3Kδ, on PI3Kγ and against PI3Kβ were 21 nM, more than 10 µM and 33 nM, respectively.

As to `C[C@H](Nc1nc(N)nc(N)c1C#N)c1nc2c(C(F)F)cc(F)cc2c(=O)n1-c1cc[nH]n1` [Compound 140], the IC50 at PI3Kδ is 5 nM; at PI3Kγ it was 6.08 µM; against PI3Kβ, 2 nM.

As to `C[C@H](Nc1nc(N)nc(N)c1Cl)c1nc2c(C(F)F)cc(F)cc2c(=O)n1-c1cc[nH]n1` [Compound 141, (S)-2-(1-((2,6-diamino-5-chloropyrimidin-4-yl)amino)ethyl)-8-(difluoromethyl)-6-fluoro-3-(1H-pyrazol-3-yl)quinazolin-4(3H)-one], the IC50 on PI3Kδ is 110 nM; on PI3Kγ, more than 10 µM; against PI3Kβ, 130 nM.

For `C[C@H](Nc1nc(N)nc(C(F)F)c1C#N)c1nc2c(C(F)F)cc(F)cc2c(=O)n1-c1cc[nH]n1` [Compound 142, (S)-2-amino-4-(difluoromethyl)-6-((1-(8-(difluoromethyl)-6-fluoro-4-oxo-3-(1H-pyrazol-3-yl)-3,4-dihydroquinazolin-2-yl)ethyl)amino)pyrimidine-5-carbonitrile], the IC50 was 47 nM at PI3Kδ, more than 10 µM at PI3Kγ and 35 nM on PI3Kβ.

As for `N#Cc1c(N)nc(N)nc1N[C@H](c1nc2c(C(F)F)cc(F)cc2c(=O)n1-c1cc[nH]n1)C1CC1` [Compound 143, (S)-2,4-diamino-6-((cyclopropyl(8-(difluoromethyl)-6-fluoro-4-oxo-3-(1H-pyrazol-3-yl)-3,4-dihydroquinazolin-2-yl)methyl)amino)pyrimidine-5-carbonitrile], the concentration for half-maximal inhibition (IC50) against PI3Kδ was found to be 3 nM; at PI3Kγ, 7.5 µM; at PI3Kβ it was 2 nM.

Turning to `Nc1nc(N)c(Cl)c(N[C@H](c2nc3c(C(F)F)cc(F)cc3c(=O)n2-c2cc[nH]n2)C2CC2)n1` [Compound 144, (S)-2-(cyclopropyl((2,6-diamino-5-chloropyrimidin-4-yl)amino)methyl)-8-(difluoromethyl)-6-fluoro-3-(1H-pyrazol-3-yl)quinazolin-4(3H)-one], the IC50 against PI3Kδ is 190 nM; at PI3Kγ, more than 10 µM; against PI3Kβ it was 130 nM.

Broadly, the IC50 is the midpoint of a concentration-inhibition curve.
